Source: US6521252B1, “Transfecting compounds which are sensitive to reducing conditions, pharmaceutical compositions containing them and their applications” (Aventis Pharma S.A., priority 1998, dated 2003)

Assays:
HepG2 cells [1] = experiment: Toxicity of cytofectant mixtures, protein concentrations in cell lysates, HepG2 cells; details: for toxicity (in words): up to 160 μM of cationic lipid
Procedure: (§4) The cells are cultured under appropriate conditions in 24-well microplates (2 cm^2/well) and are transfected while they are in the exponential growth phase and at 50-70% confluence.
(§5) The cells are washed with twice 0.5 cm^3 of medium free of serum proteins and grown again either in serum-free medium (transfection in the absence of serum), or in complete medium (transfection in the presence of serum) 0.05 cm^3 of cytofectant mixture (0.5 μg DNA/well) are added to the cells (3 wells/condition DNA vector). When the cells are transfected in the absence of serum, the growth medium is supplemented 2 hours after transfection with the appropriate quantity of serum.
(§6) The toxicity of the cytofectant mixtures is estimated by a measurement of the protein concentrations in the cell lysates.

HepG2 cells [2] = experiment: In vitro transfection efficiency, luciferase expression, HepG2 cells; type: cell-based; details: for inhibition of transfection due to the presence of serum proteins (in words): presence vs absence of serum
Procedure: (§1) The plasmid used is described in Patent WO 97/10343. This construct pCOR_pXL2774 comprises the gene encoding luciferase under the human cytomegalovirus very early gene promoter [hCMV-IE].
(§2) The nucleic acid solutions are diluted to 20 μg/ml in physiological saline (0.15 M NaCl).
(§3) The products described in the invention are dissolved in water at a concentration varying from 40 to 160 μmol and mixed volume for volume with the DNA solution. The final saline concentration is 75 mmol.

[3] = Detergent action: solubilization of liposomes EPC/EPA (10:1) measured by turbidity; details: turbidity by spectrophotometer; compared with Triton X-100 (100% solubilization)
From the text: For that, an in vitro model is used which represents the biological membranes, namely liposomes EPC/EPA (egg phosphatidylcholine/egg phosphatidic acid, 10:1).
These liposomes are formed by dissolving the various constituents in chloroform, and then evaporating the said chloroform with the aid of a rotary evaporator. The lipid film obtained is redispersed in water, and then the liposomes are formed by sonication and heating.
The evaluation of the detergent action of the product added to the liposomes is made by measuring the turbidity with the aid of a spectrophotometer.

HeLa cells [4] = experiment: Toxicity of cytofectant mixtures, protein concentrations in cell lysates, HeLa cells; type: cell-based; details: up to 160 μM of cationic lipid
Procedure: as §4, §5, §6

HeLa cells [5] = experiment: In vitro transfection efficiency, luciferase expression, HeLa cells; type: cell-based; details: for inhibition of transfection due to the presence of serum proteins (in words): presence vs absence of serum
Procedure: as §1, §2, §3

[6] = HeLa cells, absence of serum proteins
[7] = HepG2 cells, absence of serum proteins

## CCCCCCCCCCCCCCCCCCNC(=O)C(CSSCC(NC(=O)CNCCCNCCCCNCCCN)C(=O)NCCCCCCCCCCCCCCCCCC)NC(=O)CNCCCNCCCCNCCCN (stereo not shown) [compound (VI), [NH2(CH2)3NH (CH2)4NH (CH2)3NHCH2CO—CyNH (CH2)17CH3]2]
HepG2 cells [1]; transfection in the absence of serum proteins, cationic lipid dose 160 μM
  survival: 80%
HepG2 cells [2]; HepG2 cells, absence of serum (FIG. 3)
  transgene expression in comparison with reference cationic lipid REF: 4 times

## Triton X-100
[3]
  solubilization of the liposomes: 100%

## NH2(CH2)3NH(CH2)4NH(CH2)3NHCH2COCys-[S—S—(CH2)4CH3]—N[(CH2)17CH3]2 [compound (I)]
HeLa cells [4]
  toxicity (in words): no significant toxicity
HepG2 cells [1]
  toxicity (in words): no significant toxicity
HeLa cells [5]; [6]
  transfection results compared with reference cationic lipid REF (in words): same order of magnitude
HeLa cells [5]; HeLa cells
  inhibition of transfection due to the presence of serum proteins (in words): no significant inhibition
HepG2 cells [2]; [7]
  transfection results compared with reference cationic lipid REF (in words): same order of magnitude
HepG2 cells [2]; HepG2 cells
  inhibition of transfection due to the presence of serum proteins (in words): no significant inhibition

## NH2(CH2)3NH(CH2)4NH(CH2)3NHCH2COCys-[S—S—(CH2)11CH3]—N[(CH2)17CH3]2 [compound (IV)]
HeLa cells [4]
  toxicity (in words): no significant toxicity
HepG2 cells [1]
  toxicity (in words): no significant toxicity
HeLa cells [5]; [6]
  expression of the transgene compared with reference cationic lipid REF: about 2 fold
HeLa cells [5]; HeLa cells
  inhibition of transfection due to the presence of serum proteins (in words): no significant inhibition
HepG2 cells [2]; [7]
  expression of the transgene compared with reference cationic lipid REF: about 9 fold
HepG2 cells [2]; HepG2 cells
  inhibition of transfection due to the presence of serum proteins (in words): no significant inhibition

## NH2 (CH2)3NH(CH2)4NH(CH)3NHCH2COCys-[S—S—(CH2)17CH3]—NH (CH2)17CH3 [compound (II)]
HepG2 cells [1]
  toxicity (in words): no significant toxicity
HepG2 cells [2]; [7]
  expression of the transgene compared with reference cationic lipid REF: up to 3 fold
HepG2 cells [2]; HepG2 cells, presence of serum proteins
  improvement of transfection compared with reference cationic lipid REF: up to 40 fold
HepG2 cells [2]; HepG2 cells
  inhibition of transfection due to the presence of serum proteins (in words): no inhibitory effect

## NH2(CH2)3NH(CH2)4NH(CH2)3NHCH2COCyS-[S—S-Cholesterol]—NH(CH2)17CH3 [compound (V)]
HeLa cells [4]
  toxicity (in words): no significant toxicity
HepG2 cells [1]
  toxicity (in words): no significant toxicity
HeLa cells [5]; HeLa cells (FIG. 9)
  gain in expression of the transgene, cholesterol instead of an alkyl chain (in words): very significant gain
HeLa cells [5]; HeLa cells
  inhibition of transfection due to the presence of serum proteins (in words): no inhibition could be observed
HepG2 cells [2]; HepG2 cells (FIG. 9)
  gain in expression of the transgene, cholesterol instead of an alkyl chain (in words): very significant gain
HepG2 cells [2]; HepG2 cells
  inhibition of transfection due to the presence of serum proteins (in words): no inhibition could be observed
